In ChEMBL document CHEMBL1909046, “DrugMatrix in vitro pharmacology data”:

Experiments:
[1] = biological target: 5-hydroxytryptamine receptor 1B (Rattus norvegicus, UniProt P28564); assay type: cell membranes, Wistar, Cerebral cortex, Membrane; note: in other assays of this panel Not Active means under 50% inhibition at 10 µM
[2] = biological target: T1, Type-2 angiotensin II receptor (Homo sapiens, UniProt P50052); assay type: cell-based; conditions: cho-k1; note: in other assays of this panel Not Active means under 50% inhibition at 10 µM
T1 sequence (P50052 whole entry): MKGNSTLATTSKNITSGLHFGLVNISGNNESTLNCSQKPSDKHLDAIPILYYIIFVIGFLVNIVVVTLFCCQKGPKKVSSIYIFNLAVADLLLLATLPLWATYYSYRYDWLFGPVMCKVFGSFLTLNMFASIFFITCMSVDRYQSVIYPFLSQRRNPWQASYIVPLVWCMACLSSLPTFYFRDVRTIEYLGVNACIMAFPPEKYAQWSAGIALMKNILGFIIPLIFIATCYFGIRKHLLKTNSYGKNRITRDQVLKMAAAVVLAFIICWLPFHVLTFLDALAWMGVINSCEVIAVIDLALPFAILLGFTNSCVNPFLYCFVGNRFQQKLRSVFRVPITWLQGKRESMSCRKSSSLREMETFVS

[3] = biological target: T2, Alpha-1A adrenergic receptor (Rattus norvegicus, UniProt P43140); test: DRUGMATRIX: Alpha-1A adrenergic receptor radioligand binding (ligand: prazosin); assay type: cell membranes, Wistar, Submaxillary gland, Membrane; conditions: Not Active = under 50% inhibition at 10 µM
T2 sequence (P43140 whole entry): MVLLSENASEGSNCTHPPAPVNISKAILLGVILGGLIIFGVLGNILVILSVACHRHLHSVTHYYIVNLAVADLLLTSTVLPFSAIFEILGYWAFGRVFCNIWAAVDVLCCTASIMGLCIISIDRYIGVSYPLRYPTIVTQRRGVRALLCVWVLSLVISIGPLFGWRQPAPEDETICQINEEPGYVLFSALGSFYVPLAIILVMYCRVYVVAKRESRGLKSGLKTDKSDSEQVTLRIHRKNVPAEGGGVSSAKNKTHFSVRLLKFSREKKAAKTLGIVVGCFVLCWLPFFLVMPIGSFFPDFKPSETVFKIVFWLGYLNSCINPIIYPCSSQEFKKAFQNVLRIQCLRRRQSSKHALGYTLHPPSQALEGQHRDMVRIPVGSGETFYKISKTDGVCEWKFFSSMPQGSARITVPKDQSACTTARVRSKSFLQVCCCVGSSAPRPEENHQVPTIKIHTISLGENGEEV

[4] = biological target: T3, 3-hydroxy-3-methylglutaryl-coenzyme A reductase (Homo sapiens, UniProt P04035); set-up: species or system Escherichia coli;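 note: enzyme inhibition assay of HMG-CoA reductase using radiolabeled [14C]HMG-CoA as substrate; in other assays of this panel Not Active means under 50% inhibition at 10 µM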
T3 sequence (P04035 whole entry): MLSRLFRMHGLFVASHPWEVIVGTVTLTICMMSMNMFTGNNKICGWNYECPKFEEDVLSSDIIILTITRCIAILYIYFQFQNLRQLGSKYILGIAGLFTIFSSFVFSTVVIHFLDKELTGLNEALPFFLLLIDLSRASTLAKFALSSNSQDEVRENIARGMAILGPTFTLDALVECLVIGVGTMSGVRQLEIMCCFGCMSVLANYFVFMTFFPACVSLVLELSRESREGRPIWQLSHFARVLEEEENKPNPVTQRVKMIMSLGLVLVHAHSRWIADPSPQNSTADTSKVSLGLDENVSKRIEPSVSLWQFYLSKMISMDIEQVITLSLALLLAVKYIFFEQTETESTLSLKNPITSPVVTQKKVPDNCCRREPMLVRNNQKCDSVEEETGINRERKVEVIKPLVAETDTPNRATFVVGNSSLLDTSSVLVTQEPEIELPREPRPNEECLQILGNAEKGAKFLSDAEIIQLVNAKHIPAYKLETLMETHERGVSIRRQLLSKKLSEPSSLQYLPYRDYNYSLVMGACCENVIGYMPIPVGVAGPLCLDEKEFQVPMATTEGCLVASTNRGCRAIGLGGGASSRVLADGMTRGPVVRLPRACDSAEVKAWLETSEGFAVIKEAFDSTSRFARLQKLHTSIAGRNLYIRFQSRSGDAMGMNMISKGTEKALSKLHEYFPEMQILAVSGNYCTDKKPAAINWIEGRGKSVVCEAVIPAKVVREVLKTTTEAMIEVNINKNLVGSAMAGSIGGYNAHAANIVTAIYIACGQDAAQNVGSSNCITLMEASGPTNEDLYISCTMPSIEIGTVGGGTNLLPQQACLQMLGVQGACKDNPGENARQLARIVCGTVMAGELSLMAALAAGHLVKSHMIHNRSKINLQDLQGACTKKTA

[5] = biological target: C-C chemokine receptor type 5 (Homo sapiens, UniProt P51681); assay type: cell membranes, HEK293, Membrane; conditions: hek293; note: in other assays of this panel Not Active means under 50% inhibition at 10 µM
Chain of C-C chemokine receptor type 5 (P51681 whole entry): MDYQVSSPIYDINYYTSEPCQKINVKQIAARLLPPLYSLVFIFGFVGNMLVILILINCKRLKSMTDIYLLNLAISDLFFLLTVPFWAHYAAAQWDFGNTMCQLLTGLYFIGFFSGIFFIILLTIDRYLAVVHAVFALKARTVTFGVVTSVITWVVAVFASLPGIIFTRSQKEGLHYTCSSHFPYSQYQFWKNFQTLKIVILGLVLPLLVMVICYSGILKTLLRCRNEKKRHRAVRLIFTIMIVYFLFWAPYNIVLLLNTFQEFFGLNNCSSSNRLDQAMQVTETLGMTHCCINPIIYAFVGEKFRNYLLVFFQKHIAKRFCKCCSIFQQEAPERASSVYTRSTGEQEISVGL

[6] = biological target: T4, Alpha-1B adrenergic receptor (Rattus norvegicus, UniProt P15823); test: DRUGMATRIX: Alpha-1B adrenergic receptor radioligand binding (ligand: prazosin); assay type: cell membranes, Wistar, Liver, Membrane; conditions: Not Active = under 50% inhibition at 10 µM
T4 sequence (P15823 whole entry): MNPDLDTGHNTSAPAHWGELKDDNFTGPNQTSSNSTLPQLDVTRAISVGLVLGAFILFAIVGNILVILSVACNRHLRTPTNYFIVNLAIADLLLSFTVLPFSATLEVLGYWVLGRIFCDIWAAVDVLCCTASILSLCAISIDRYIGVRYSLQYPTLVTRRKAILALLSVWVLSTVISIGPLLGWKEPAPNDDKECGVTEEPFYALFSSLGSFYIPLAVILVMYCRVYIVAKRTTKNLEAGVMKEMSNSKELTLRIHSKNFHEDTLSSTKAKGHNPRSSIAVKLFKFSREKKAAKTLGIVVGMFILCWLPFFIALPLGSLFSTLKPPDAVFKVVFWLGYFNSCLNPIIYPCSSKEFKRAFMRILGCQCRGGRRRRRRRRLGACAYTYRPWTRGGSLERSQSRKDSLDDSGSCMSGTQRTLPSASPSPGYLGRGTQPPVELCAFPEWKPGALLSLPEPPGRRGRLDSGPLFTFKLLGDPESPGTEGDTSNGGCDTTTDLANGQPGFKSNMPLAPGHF

[7] = biological target: T5, Muscarinic acetylcholine receptor M2 (Homo sapiens, UniProt P08172); assay type: cell membranes, CHO-K1, Membrane; conditions: cho-k1; note: in other assays of this panel Not Active means under 50% inhibition at 10 µM
T5 sequence (P08172 whole entry): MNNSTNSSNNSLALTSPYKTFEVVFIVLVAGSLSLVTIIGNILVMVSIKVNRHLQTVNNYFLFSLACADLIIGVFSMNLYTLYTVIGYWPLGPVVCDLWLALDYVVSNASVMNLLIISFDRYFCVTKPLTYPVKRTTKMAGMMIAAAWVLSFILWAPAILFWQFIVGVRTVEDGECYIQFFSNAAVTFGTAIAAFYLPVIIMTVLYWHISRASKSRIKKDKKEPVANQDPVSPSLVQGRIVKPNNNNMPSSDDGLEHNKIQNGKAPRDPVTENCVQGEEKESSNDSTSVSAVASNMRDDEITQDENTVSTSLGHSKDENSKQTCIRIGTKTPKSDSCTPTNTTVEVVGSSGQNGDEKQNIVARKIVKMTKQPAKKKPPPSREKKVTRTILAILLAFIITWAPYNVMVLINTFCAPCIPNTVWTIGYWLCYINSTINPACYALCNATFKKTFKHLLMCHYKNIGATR

Measured: IC50

Chain of 5-hydroxytryptamine receptor 1B (P28564 whole entry): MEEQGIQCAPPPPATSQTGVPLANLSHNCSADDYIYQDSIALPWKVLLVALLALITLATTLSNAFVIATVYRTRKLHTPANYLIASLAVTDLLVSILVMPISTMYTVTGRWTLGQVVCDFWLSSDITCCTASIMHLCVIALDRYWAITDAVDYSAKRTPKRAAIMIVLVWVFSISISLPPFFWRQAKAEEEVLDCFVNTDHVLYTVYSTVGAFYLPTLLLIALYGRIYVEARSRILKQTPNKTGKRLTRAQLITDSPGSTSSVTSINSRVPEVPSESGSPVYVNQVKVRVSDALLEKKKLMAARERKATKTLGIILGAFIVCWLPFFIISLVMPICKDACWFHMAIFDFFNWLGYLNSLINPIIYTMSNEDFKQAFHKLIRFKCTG

Cc1cccc(Nc2ccncc2S(=O)(=O)NC(=O)NC(C)C)c1 [TORSEMIDE]
Not Active: all assays above

CC(C)C[C@H](NC(=O)[C@@H](O)[C@H](N)Cc1ccccc1)C(=O)O [UBENIMEX]
Not Active: all assays above

Cc1onc(-c2ccccc2)c1-c1ccc(S(N)(=O)=O)cc1 [VALDECOXIB]
Not Active: all assays above

CC[C@]1(O)C[C@@H]2CN(CCc3c([nH]c4ccccc34)[C@@](C(=O)OC)(c3cc4c(cc3OC)N(C)[C@H]3[C@@](O)(C(=O)OC)[C@H](OC(C)=O)[C@]5(CC)C=CCN6CC[C@]43[C@@H]65)C2)C1 [VINBLASTINE]
Not Active: all assays above

CC(=O)CC(c1ccccc1)c1c(O)c2ccccc2oc1=O (centres undefined) [WARFARIN]
Not Active: all assays above

C[C@@H](N)[C@H]1CC[C@H](C(=O)Nc2ccncc2)CC1 [Y-27632]
Not Active: all assays above

[Cl-].[Cl-].[Zn+2] [ZINC CHLORIDE]
Not Active: all assays above
